{
  "source": "patent US20030186941A1",
  "about": "“Cyclopenteneone derivatives” (priority 1999, published 2003)",
  "key": {"[1]": {"test_system": "parainfluenza Sendai virus (SV)", "assay": "microbe, parasite or virus in culture", "assay_type": "cell-based", "settings": "for inhibition of Sendai virus replication: 37RC cells, virus yield at 24 hours after infection; for IC50: Respirovirus muris"}, "[2]": {"test_system": "37RC cells", "assay": "Toxicity to uninfected 37RC cells, determined visually by microscopy", "assay_type": "cell-based, Monkey"}, "[3]": {"molecular_target": "T1, NF-κB (Homo sapiens, UniProt Q04206)", "T1 sequence (Q04206 whole entry)": "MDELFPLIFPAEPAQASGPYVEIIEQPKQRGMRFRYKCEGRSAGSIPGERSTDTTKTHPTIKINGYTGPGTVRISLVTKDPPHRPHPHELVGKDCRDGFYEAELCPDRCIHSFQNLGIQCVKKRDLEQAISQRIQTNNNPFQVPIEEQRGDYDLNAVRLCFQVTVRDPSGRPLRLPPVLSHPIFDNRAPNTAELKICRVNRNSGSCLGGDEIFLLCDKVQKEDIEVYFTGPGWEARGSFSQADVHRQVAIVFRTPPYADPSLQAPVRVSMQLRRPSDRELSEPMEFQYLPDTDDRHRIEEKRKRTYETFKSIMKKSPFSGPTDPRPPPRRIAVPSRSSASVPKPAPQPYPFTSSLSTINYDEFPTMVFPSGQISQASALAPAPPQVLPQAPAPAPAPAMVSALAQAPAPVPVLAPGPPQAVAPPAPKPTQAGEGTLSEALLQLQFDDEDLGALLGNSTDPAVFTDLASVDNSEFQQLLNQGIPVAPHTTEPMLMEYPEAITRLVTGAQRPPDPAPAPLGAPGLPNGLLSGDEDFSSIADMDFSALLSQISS", "T1 sequence (P19838 1-433 partner limits assumed)": "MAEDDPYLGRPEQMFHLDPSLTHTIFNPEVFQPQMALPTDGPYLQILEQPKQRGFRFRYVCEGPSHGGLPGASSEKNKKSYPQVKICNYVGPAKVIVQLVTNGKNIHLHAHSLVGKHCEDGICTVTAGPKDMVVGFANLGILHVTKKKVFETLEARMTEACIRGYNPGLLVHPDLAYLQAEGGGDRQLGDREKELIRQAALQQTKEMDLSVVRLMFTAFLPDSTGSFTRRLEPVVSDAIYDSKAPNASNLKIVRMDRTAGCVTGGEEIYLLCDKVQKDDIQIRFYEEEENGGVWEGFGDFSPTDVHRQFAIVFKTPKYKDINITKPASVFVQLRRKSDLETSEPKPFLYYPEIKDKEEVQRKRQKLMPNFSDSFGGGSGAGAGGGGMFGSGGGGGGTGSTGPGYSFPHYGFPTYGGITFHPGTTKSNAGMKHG", "assay": "EMSA of NF-κB DNA-binding activity in TPA-stimulated Jurkat T cells", "assay_type": "cell-based", "set-up": "endogenous in cells; host or cells: Jurkat T cells (human lymphoblastoid), TPA-stimulated; whole-cell extracts", "settings": "test compound 1 hour then TPA 25 ng/ml, extracts after 3 hours", "method": "Methods: Human lymphoblastoid Jurkat T cells were grown at 37° C. in a 5% CO2 atmosphere in RPM1 1640 medium (GIBCO BRL, Gaithersburg, Md.) supplemented with 10% fetal calf serum (FCS, Hyclone Europe Ltd, UK) 2 mM glutamine and antibiotics according to the method described by A. Rossi et al. (Proc. Natl. Acad. Sci. USA 94: 746-750, 1997). The test compounds were stored as a 100% ethanolic stock solution (100 mM) or in DMSO (100 mM and diluted to the appropriate concentration in culture medium at the time of use. Cells were treated with different concentrations of test compound for 1 hour and then stimulated with 12-O-tetradecanoylphorbol-13-acetate (TPA, 25 ng/ml), which is a strong inducer of NF-κB. Control cells received an equal amount of control diluent. After 3 hours whole-cell extracts were prepared and subjected to analysis of DNA-binding activity by EMSA (Electrophoretic Mobility Shift Assay) for detection of HSF or NF-κB activation, according to the method described by A. Rossi et al. (Proc. Natl. Acad. Sci. USA 94: 746-750, 1997).\nSpecificity of protein-DNA complexes was verified by immunoreactivity with polyclonal antibodies specific for p65 (Rel A) or for HSF-1, for NF-κB and HSF respectively. Quantitative evaluation of NF-κB- and HSF-DNA complex formation was determined by Molecular Dynamics Phosphorlmager (MDP) analysis and was expressed in arbitrary units, as described in A. Rossi et al.(J. Biol. Chem. 273: 16446-16452, 1998). The results from representative experiments are shown in FIGS. 1(b), 2(b), 3(b), 4(b), 5(b), 6 and 7(b) for compounds CTC-31, CTC-32, CTC-33, CTC-34, CTC-35, CTC-36 and CTC-45, as identified above."}, "[4]": {"test_system": "A549 cells", "assay": "MTT cell viability assay, uninfected A549 cells", "assay_type": "cell-based, Human", "settings": "24 hours", "method": "(§1) Cell viability was determined by the 3-(4,5-dimethylthiazol-2-yl)-2,5-diphenyltetrazolium bromide MIT) assay. Uninfected A549 (7.5×10^4 cells/well in 96 well plates) or 37RC cells (2.5×10^4 cells/well in 96 well plates) were treated with different concentrations of CTC35 or ethanol diluent for 24 hours. After this time, […] of a 0.5% MIT solution in PBS was added to the monolayers and the mixture was incubated for 2 h at 37° C. Reduced MTT (formazan) was extracted from cells by adding 100 μl of acidic isopropanol containing 10% Triton X-100, and formazan absorbance was measured in an ELISA microplate reader at two different wavelengths (540 and 690 nm)."}, "[5]": {"test_system": "37RC cells", "assay": "MTT cell viability assay, uninfected 37RC cells", "assay_type": "cell-based, Monkey", "settings": "24 hours", "method": "as §1"}, "[6]": {"test_system": "Herpes simplex virus type one (HSV-1), strain F", "assay": "HSV-1 replication in Hep-2 cells, virus titre by CPE 50% assay on VERO cells", "assay_type": "cell-based, Herpes simplex virus type 1", "settings": "Human alphaherpesvirus 1, HEp-2, 24 h, read-out: ID50 (50% inhibitory dose/concentration), HSV-1 virus replication", "method": "Methods: Human Hep-2 laryngeal carcinoma cells and monkey VERO cells were grown at 37° C. under the conditions described in Example 9 for T cells. Cell viability was determined by dye exclusion technique or by 3-(4,5-dimethylthiazol-2-yl)-2,5-diphenyl-tetrazolium bromide (MTT, Sigma Chemical Co.) to MTT formazan assay, as described by F. Denizot and R. Lang (J. Immunol. Methods 89: 271-277, 1986). Herpes simplex virus type one (HSV-1), strain F grown in VERO cells, was used at a multiplicity of infection of 10 plaque forming units (PFU) per cell. Confluent Hep-2 cell monolayers were infected with HSV-1 for 1 h at 37° C. After this time, virus inocula were removed and cells incubated in RPMI 1640 medium containing 2% FCS. Different concentrations of CTC-35 were added to the culture after the 1 h adsorption period, and maintained in the medium for the duration of the experiment. […] HSV-1 virus titres were determined 24 hours after infection by cytopathic effect 50% (CPE 50%) assay on confluent VERO cells monolayers in 96-well tissue culture plates (six dilutions for each sample, eight wells for each dilution), as described by F. Pica et al. (Antiviral Res. 20: 193-208, 1993). The dilution that gives 50% cytopathic effect were determined by the interpolating procedure of Reed and Muensch, as described by E. Rodriguez-Boulan Methods Enzymol. 98: 486-501, 1983)."}, "[7]": {"settings": "anaesthetized rat, intravenous infusion, doses from 30 μg/kg/min; cited from earlier work"}, "[8]": {"molecular_target": "T1, NF-κB", "settings": "at a concentration of 125-500 μM; cited from earlier work"}, "[9]": {"molecular_target": "T2, HSF1 (Homo sapiens, UniProt Q00613)", "T2 sequence (Q00613 1-529)": "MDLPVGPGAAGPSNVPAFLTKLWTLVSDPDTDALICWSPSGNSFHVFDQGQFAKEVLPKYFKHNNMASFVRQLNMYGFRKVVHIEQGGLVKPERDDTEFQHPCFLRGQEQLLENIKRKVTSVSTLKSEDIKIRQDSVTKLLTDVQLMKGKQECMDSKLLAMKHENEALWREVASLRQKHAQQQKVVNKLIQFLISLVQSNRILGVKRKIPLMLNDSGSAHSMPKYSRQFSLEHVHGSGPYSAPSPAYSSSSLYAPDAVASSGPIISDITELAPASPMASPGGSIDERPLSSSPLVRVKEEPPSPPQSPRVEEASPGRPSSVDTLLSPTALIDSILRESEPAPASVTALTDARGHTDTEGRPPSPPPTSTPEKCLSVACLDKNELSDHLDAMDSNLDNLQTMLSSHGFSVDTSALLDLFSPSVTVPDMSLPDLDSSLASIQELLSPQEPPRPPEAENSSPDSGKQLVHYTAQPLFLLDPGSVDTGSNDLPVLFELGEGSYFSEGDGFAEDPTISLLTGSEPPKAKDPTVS", "settings": "at a concentration of 125-500 μM; cited from earlier work"}, "[10]": {"settings": "Sendai virus in 37RC cells, at 24 hours, read-out: ID50 (the source's name)"}},
  "note": "Read-outs that look alike come from different tables or passages of the source.",
  "data": [
    {"smiles": "CC/C=C1/C(=O)C=CC1O[Si](C)(C)C(C)(C)C", "note": "(stereo not drawn) [CTC-31, 4-tert.butyldimethylsilyloxy-5-(prop-1-ene)-cyclopent-2-ene-1-one]", "values": [
      {"measurement": "inhibition of Sendai virus replication", "setting": "[1]", "value": "potent inhibitors of Sendai virus replication"},
      {"measurement": "IC50", "setting": "[1]; 24 h, read-out: ID50", "value": 1, "unit": "µM"},
      {"measurement": "TD100 (concentration 100% toxic to uninfected cells)", "setting": "[2]", "value": 50, "unit": "µM"},
      {"measurement": "inhibition of NF-κB (NF-κB-DNA complex formation, EMSA)", "setting": "[3]", "value": "potent inhibitors of NF-κB"}
    ]},
    {"smiles": "CC(C)(C)[Si](C)(C)OC1C=CC(=O)/C1=C/c1ccccn1", "note": "(stereo not drawn) [CTC-32, 4-tert.butyldimethylsilyloxy-5-[methylene-(2-pyridyl)]-cyclopent-2-ene-1-one]", "values": [
      {"measurement": "IC50", "setting": "[1]; 24 h, read-out: ID50", "value": 2, "unit": "µM"},
      {"measurement": "TD100 (concentration 100% toxic to uninfected cells)", "setting": "[2]", "value": 10, "unit": "µM"}
    ]},
    {"smiles": "CC(C)(C)[Si](C)(C)OC1C=CC(=O)/C1=C/c1ccccc1", "note": "(stereo not drawn) [CTC-33, 5-benzylidene-4-[(tert-butyldimethylsilyl)oxy]-2-cyclopentene-1-one]", "values": [
      {"measurement": "inhibition of Sendai virus replication", "setting": "[1]", "value": "potent inhibitors of Sendai virus replication"},
      {"measurement": "IC50", "setting": "[1]; [10]", "value": 1.5, "unit": "µM"},
      {"measurement": "TD100 (concentration 100% toxic to uninfected cells)", "setting": "[2]", "value": 50, "unit": "µM"},
      {"measurement": "inhibition of NF-κB (NF-κB-DNA complex formation, EMSA)", "setting": "[3]", "value": "potent inhibitors of NF-κB"}
    ]},
    {"smiles": "CCCCCCC/C=C1/C(=O)C=CC1O[Si](C)(C)C(C)(C)C", "note": "(stereo not drawn) [CTC-34, 4-tert.butyldimethylsilyloxy-5-(oct-1-ene)-cyclopent-2-ene-1-one]", "values": [
      {"measurement": "inhibition of Sendai virus replication", "setting": "[1]", "value": "potent inhibitors of Sendai virus replication"},
      {"measurement": "IC50", "setting": "[1]; 24 h, read-out: ID50", "value": 3, "unit": "µM"},
      {"measurement": "TD100 (concentration 100% toxic to uninfected cells)", "setting": "[2]", "value": 50, "unit": "µM"},
      {"measurement": "inhibition of NF-κB (NF-κB-DNA complex formation, EMSA)", "setting": "[3]", "value": "potent inhibitors of NF-κB"}
    ]},
    {"smiles": "CC(C)/C=C1\\C(=O)C=CC1O[Si](C)(C)C(C)(C)C", "note": "(stereo not drawn) [CTC-35]", "values": [
      {"measurement": "LD50 (Lethal dose/concentration 50%)", "setting": "[4]", "value": 90, "unit": "µM"},
      {"measurement": "inhibition of Sendai virus replication", "setting": "[1]", "value": "potent inhibitors of Sendai virus replication"},
      {"measurement": "IC50", "setting": "[1]; [10]", "value": 0.4, "unit": "µM"},
      {"measurement": "LD50 (Lethal dose/concentration 50%)", "setting": "[5]", "value": 30, "unit": "µM"},
      {"measurement": "TD100 (concentration 100% toxic to uninfected cells)", "setting": "[2]", "value": 50, "unit": "µM"},
      {"measurement": "IC50", "setting": "[6]", "value": 1.51, "unit": "µM"},
      {"measurement": "inhibition of NF-κB (NF-κB-DNA complex formation, EMSA)", "setting": "[3]", "value": "potent inhibitors of NF-κB"}
    ]},
    {"smiles": "CC(C)/C=C1/C(=O)C=CC1O[Si](C)(C)C(C)(C)C", "note": "(stereo not drawn) [CTC-36]", "values": [
      {"measurement": "inhibition of NF-κB (NF-κB-DNA complex formation, EMSA)", "setting": "[3]", "value": "potent inhibitors of NF-κB"}
    ]},
    {"smiles": "CCC/C=C1/C(=O)C=CC1O[Si](C)(C)C(C)(C)C", "note": "(stereo not drawn) [CTC-45, butyldimethylsilyloxy-5-[but-1-ene]-cyclopent-2-ene-1-one]", "values": [
      {"measurement": "inhibition of Sendai virus replication", "setting": "[1]", "value": "potent inhibitors of Sendai virus replication"},
      {"measurement": "IC50", "setting": "[1]; 24 h, read-out: ID50", "value": 3, "unit": "µM"},
      {"measurement": "TD100 (concentration 100% toxic to uninfected cells)", "setting": "[2]", "value": 50, "unit": "µM"},
      {"measurement": "inhibition of NF-κB (NF-κB-DNA complex formation, EMSA)", "setting": "[3]", "value": "potent inhibitors of NF-κB"}
    ]},
    {"smiles": "CCCCC[C@H](O)/C=C/[C@H]1C=CC(=O)[C@@H]1CCCCCCC(=O)O", "note": "[Prostaglandin A1]", "values": [
      {"measurement": "effect on blood pressure", "setting": "[7]", "value": "dose-dependant falls in blood pressure"}
    ]},
    {"smiles": "CCCCC[C@H](O)/C=C/[C@H]1[C@H](O)CC(=O)[C@@H]1CCCCCCC(=O)O", "note": "[Prostaglandin E1]", "values": [
      {"measurement": "effect on blood pressure", "setting": "[7]", "value": "dose-dependant falls in blood pressure"}
    ]},
    {"smiles": "O=C1C=CCC1", "note": "[cyclopent-2-en-1-one]", "values": [
      {"measurement": "block of NF-κB activation by chemical or physiological inducers", "setting": "[8]", "value": "able to block NF-κB activation"},
      {"measurement": "activation of HSF1", "setting": "[9]", "value": "able to activate HSF1"}
    ]}
  ]
}
